Assay results published in article PMC6023543, “Resistance to Permethrin, β-cyfluthrin, and Diazinon in Florida Horn Fly Populations” (Insects, 2018).

Legend:
Experiment in all cases: Ellman assay, […] nm, head homogenate
Format in all cases: biochemical, Haematobia irritans
[1] = target: T1, acetylcholinesterase (AChE), Labelle field population; settings: 0.4 mM acetylthiocholine, pH 7.8 phosphate, 25 °C, 10 min preincubation; covalent
T1 construct: gene Ace; native enzyme in homogenate of five pooled fly heads

[2] = target: T2, acetylcholinesterase (AChE), BTU field population; settings: 0.4 mM acetylthiocholine, pH 7.8 phosphate, 25 °C, 10 min preincubation; covalent
T2 construct: gene Ace; native enzyme in homogenate of five pooled fly heads; mixed genotypes, G262A in a small part of the flies, other mutations not screened

[3] = target: T3, acetylcholinesterase (AChE), Ona field population; settings: 0.4 mM acetylthiocholine, pH 7.8 phosphate, 25 °C, 10 min preincubation; covalent; stated gain
T3 construct: gene Ace; native enzyme in homogenate of five pooled fly heads; mixed genotypes, G262A in a small part of the flies, other mutations not screened

[4] = target: T4, acetylcholinesterase (AChE), Kerrville susceptible strain; settings: 0.4 mM acetylthiocholine, pH 7.8 phosphate, 25 °C, 10 min preincubation; covalent
T4 construct: gene Ace; not purified; G262A absent in this strain

For CCOP(=O)(OCC)Oc1cc(C)nc(C(C)C)n1 [diazoxon], the IC50 [1] was 9.2 nM, the IC50 [2] was 6.1 nM and the IC50 [3] was 20.5 nM. It also gave an IC50 [4] of 8.2 nM.
